Holding throughout (format): in vivo, mouse
The test system of test [1] is WAT of mice. Briefly: β3-adrenergic agonist treatment of mice, H&E staining of white adipose tissue (beige fat islets). How it is done: (§1) All mice were housed in the pathogen-free barrier facility of the University Medical Center Freiburg in accordance with institutional guidelines and approved by the regional board. Mice were maintained in a temperature- and humidity-controlled animal facility with a 12-hour light/dark cycle, free access to water, and a standard rodent chow (Kliba, breeding, 3807). The high-fat diet (HFD) study was carried out with a chow containing 4.056 kcal/kg (fat: 1.600 kcal/kg and sucrose: 1.600 kcal/kg; Research Diets). HFD was given to mice at 5 weeks of age. Mice were analysed at 25 weeks of age. For cold exposure experiments, mice were maintained at 10° C. with a 12 hour light/dark cycle, free access to water, and a standard rodent chow. Animals were killed by cervical dislocation, tissues were immediately collected, weighted, frozen in liquid nitrogen or processed for further analyses. Nomenclature for dissected adipose depots was used according to Seale et al.^17. Epididymidal WAT (epWAT): prominent bilateral intra-abdominal visceral depots in male mice attached to the epididymis. Inguinal WAT (ingWAT): bilateral superficial inguinal depots between the skin and muscle fascia just anterior to the lower segment of the hind limbs. Perimuscular WAT (pmWAT): depots located on the upper part of the quadriceps muscle. […]

Another test concerns LSD1. Description: β3-adrenergic agonist treatment of mice, Western blot of LSD1 in WAT. To be noted: wild-type mice, CL316,243 injected intraperitoneally at 1 mg/kg vs vehicle. The method, then:
as §1, with “al.^17.” for “al.^17. Epididymidal WAT (epWAT): prominent bilateral intra-abdominal visceral depots in male mice attached to the epididymis. Inguinal WAT (ingWAT): bilateral superficial inguinal depots between the skin and muscle fascia just anterior to the lower segment of the hind limbs. Perimuscular WAT (pmWAT): depots located on the upper part of the quadriceps muscle.”
Homogenates were separated in 10% polyacrylamide gels and blotted to Hybond nitrocellulose membranes (GE Healthcare). […] Secondary antibodies conjugated to horseradish peroxidase (GE Healthcare) were detected using an enhanced chemiluminescence detection system (GE Healthcare). Protein levels were quantified using the Chemi Capt software (Peqlab).
A general note: In western blotting, separated proteins are transferred to a membrane and probed.

Test [2] concerns WAT of mice. Description: β3-adrenergic agonist treatment of Ctrl and LSD1+/− mice, qRT-PCR transcript levels in WAT. How it is done:
All mice were housed in the pathogen-free barrier facility of the University Medical Center Freiburg in accordance with institutional guidelines and approved by the regional board. Mice were maintained in a temperature- and humidity-controlled animal facility with a 12-hour light/dark cycle, free access to water, and a standard rodent chow (Kliba, breeding, 3807). The high-fat diet (HFD) study was carried out with a chow containing 4.056 kcal/kg (fat: 1.600 kcal/kg and sucrose: 1.600 kcal/kg; Research Diets). HFD was given to mice at 5 weeks of age. Mice were analysed at 25 weeks of age. For cold exposure experiments, mice were maintained at 10° C. with a 12 hour light/dark cycle, free access to water, and a standard rodent chow. Animals were killed by cervical dislocation, tissues were immediately collected, weighted, frozen in liquid nitrogen or processed for further analyses. Nomenclature for dissected adipose depots was used according to Seale et al.^17. Epididymidal WAT (epWAT): prominent bilateral intra-abdominal visceral depots in male mice attached to the epididymis. Inguinal WAT (ingWAT): bilateral superficial inguinal depots between the skin and muscle fascia just anterior to the lower segment of the hind limbs. Perimuscular WAT (pmWAT): depots located on the upper part of the quadriceps muscle. Retroperitoneal WAT (rpWAT): bilateral depots in abdominal cavity behind the peritoneum on the dorsal side of the kidney. Interscapular BAT (BAT): most prominent depot of brown adipocytes in rodents, found between the scapulae. In vivo experiments including food consumption, serum analysis, glucose tolerance and insulin sensitivity tests, temperature measurements, body lean and fat contents, and energy expenditure were described^48. CL316,243 (Sigma-Aldrich) was injected intraperitoneally at 1 mg/kg.
RNA was isolated with TRIzol Reagent (Invitrogen). […] Quantitative RT-PCR was performed using the Abgene SYBR Green PCR kit (Invitrogen) according to the supplier's protocol. Data were analysed using the standard curve method^53. […]
In general terms: Real-time PCR tracks product formation cycle by cycle.

With `C[C@H](Cc1ccc2c(c1)OC(C(=O)[O-])(C(=O)[O-])O2)NC[C@H](O)c1cccc(Cl)c1.[Na+].[Na+]` [CL316,243], the “clusters of beige fat cells in WAT” value in the test on WAT of mice [1] (LSD1+/− mice compared to control mice, both treated with CL316,243) is “fewer clusters of beige fat cells”. Further, the “beige adipocyte formation in WAT” value in the test with WAT of mice [1] (wild-type mice, CL316,243 injected intraperitoneally at 1 mg/kg vs vehicle) was “appearance of multilocular beige adipocytes”. Also, the “LSD1 protein levels in WAT” value in the test on LSD1 was “increased”. Moreover, the “expression of white fat-selective and adipogenic markers” value with WAT of mice [2] (Ctrl and LSD1+/− mice, vs vehicle) is “not significantly affected”. Also, the “adrenergic induction of Cidea, Prdm16, Pgc-1α, Ucp1 and beige fat-selective markers in WAT” value with WAT of mice [2] (LSD1+/− mice) is “impaired”. Also, in the test on WAT of mice [2] (control mice, vs vehicle), the “expression of Cidea, Prdm16, Pgc-1α, and Ucp1 and of beige fat-selective markers in WAT” value is reported as “significantly increases”.

For the origin of these results see patent US10299467B2, “Animal model for type 2 diabetes and obesity” (Universitaetsklinikum Freiburg, priority 2012, dated 2019).
